Laboratory results as given in ChEMBL document CHEMBL5465560, “Selectivity Literature for EUbOPEN Chemogenomic Library” (2024).
Blank lines part the entries; values can stand above or below the compound they belong to.

How the values were obtained:
[1] = target: Tyrosine-protein kinase BTK (Homo sapiens, UniProt Q06187); assay: Selectivity interaction (SelectScreen profiling (Invitrogen)) EUB0000607a BTK; settings: at 2 µM
[2] = target: Calcium/calmodulin-dependent protein kinase type II subunit gamma (Homo sapiens) (UniProt Q13555); assay: Selectivity interaction (KinomeScan (DiscoverX)) EUB0000607a CAMK2G; settings: at 10 µM
[3] = target: Dual specificity protein kinase CLK4 (Homo sapiens, UniProt Q9HAZ1); assay: Selectivity interaction (Kinase panel (Invitrogen)) EUB0000639a CLK4; settings: at 200 nM
[4] = target: Serine/threonine-protein kinase N1 (Homo sapiens, UniProt Q16512); assay: Selectivity interaction (ActivX KiNativ screen (kinase selectivity in THP-1 cell lysates)) EUB0000639a PKN1; assay type: subcellular; settings: lysate, at 5 µM
[5] = target: Serine/threonine-protein kinase 25 (Homo sapiens) (UniProt O00506); assay: Selectivity interaction (ActivX KiNativ screen (kinase selectivity in THP-1 cell lysates)) EUB0000639a STK25; assay type: subcellular; settings: lysate
[6] = target: Epithelial discoidin domain-containing receptor 1 (Homo sapiens) (UniProt Q08345); assay: Selectivity interaction (KinomeScan (DiscoverX)) EUB0001049a DDR1; settings: at 1 µM
[7] = target: Substance-P receptor (Homo sapiens) (UniProt P25103); assay: Selectivity interaction (Panel of kinases, GPCRs, ion channels and transporters (enzymatic assay)) EUB0000223bCl TACR1
[8] = target: Phosphatidylinositol 4-phosphate 5-kinase type-1 alpha (Homo sapiens) (UniProt Q99755); assay: Selectivity interaction (KinomeScan (DiscoverX)) EUB0000045b PIP5K1A
[9] = target: T1, Mitogen-activated protein kinase kinase kinase 13 (Homo sapiens) (UniProt O43283); assay: Selectivity interaction (KinomeScan (DiscoverX)) EUB0000618a MAP3K13; settings: at 10 µM
T1 sequence (whole entry): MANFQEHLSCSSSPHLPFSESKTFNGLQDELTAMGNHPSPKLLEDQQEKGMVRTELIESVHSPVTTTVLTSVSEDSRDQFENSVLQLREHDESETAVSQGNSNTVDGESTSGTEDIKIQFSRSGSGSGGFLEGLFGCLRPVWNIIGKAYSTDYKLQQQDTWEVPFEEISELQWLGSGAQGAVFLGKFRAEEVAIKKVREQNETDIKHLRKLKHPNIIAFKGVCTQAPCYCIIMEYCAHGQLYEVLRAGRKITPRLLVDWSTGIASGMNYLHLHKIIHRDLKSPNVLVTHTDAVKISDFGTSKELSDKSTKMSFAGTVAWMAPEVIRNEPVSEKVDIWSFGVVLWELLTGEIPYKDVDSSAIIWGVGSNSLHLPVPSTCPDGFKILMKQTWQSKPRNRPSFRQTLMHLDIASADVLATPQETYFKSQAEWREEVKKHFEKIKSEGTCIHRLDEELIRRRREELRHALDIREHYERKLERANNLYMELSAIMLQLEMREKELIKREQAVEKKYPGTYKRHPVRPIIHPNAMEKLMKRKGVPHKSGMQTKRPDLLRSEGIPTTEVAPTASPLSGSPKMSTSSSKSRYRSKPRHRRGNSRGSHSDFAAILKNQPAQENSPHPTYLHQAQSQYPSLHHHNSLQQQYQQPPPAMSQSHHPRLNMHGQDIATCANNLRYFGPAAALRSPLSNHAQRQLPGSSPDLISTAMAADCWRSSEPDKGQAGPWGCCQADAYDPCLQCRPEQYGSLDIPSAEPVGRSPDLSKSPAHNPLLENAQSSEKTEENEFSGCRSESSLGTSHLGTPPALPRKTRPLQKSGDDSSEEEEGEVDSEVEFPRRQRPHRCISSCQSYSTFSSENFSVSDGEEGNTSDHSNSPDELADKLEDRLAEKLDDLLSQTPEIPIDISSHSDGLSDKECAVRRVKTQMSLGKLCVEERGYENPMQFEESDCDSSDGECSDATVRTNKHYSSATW

[10] = target: T2, Rhodopsin kinase GRK1 (Homo sapiens) (UniProt Q15835); assay: Selectivity interaction (KinomeScan (DiscoverX)) EUB0001619a GRK1; settings: at 1 µM
T2 sequence (whole entry): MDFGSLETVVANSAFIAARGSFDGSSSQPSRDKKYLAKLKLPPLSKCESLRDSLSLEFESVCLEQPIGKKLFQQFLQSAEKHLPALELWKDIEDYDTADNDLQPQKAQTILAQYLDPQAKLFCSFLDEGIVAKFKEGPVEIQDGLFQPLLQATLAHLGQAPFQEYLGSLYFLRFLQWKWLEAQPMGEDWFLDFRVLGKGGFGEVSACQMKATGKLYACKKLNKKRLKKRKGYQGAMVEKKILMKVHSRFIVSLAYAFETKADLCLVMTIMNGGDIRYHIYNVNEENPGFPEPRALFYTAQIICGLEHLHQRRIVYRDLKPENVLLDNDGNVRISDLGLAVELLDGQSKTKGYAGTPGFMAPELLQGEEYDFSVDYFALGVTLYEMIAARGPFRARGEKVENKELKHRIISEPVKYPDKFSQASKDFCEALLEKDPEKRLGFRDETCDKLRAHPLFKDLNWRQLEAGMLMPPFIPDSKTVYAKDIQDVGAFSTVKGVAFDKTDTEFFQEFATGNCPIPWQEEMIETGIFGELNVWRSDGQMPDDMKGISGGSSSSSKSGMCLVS

[11] = target: Transient receptor potential cation channel subfamily M member 6 (Homo sapiens) (UniProt Q9BX84); assay: Selectivity interaction (KinomeScan (DiscoverX)) EUB0001619a TRPM6; settings: at 1 µM
Chain of Transient receptor potential cation channel subfamily M member 6 (Homo sapiens) (Q9BX84 whole entry): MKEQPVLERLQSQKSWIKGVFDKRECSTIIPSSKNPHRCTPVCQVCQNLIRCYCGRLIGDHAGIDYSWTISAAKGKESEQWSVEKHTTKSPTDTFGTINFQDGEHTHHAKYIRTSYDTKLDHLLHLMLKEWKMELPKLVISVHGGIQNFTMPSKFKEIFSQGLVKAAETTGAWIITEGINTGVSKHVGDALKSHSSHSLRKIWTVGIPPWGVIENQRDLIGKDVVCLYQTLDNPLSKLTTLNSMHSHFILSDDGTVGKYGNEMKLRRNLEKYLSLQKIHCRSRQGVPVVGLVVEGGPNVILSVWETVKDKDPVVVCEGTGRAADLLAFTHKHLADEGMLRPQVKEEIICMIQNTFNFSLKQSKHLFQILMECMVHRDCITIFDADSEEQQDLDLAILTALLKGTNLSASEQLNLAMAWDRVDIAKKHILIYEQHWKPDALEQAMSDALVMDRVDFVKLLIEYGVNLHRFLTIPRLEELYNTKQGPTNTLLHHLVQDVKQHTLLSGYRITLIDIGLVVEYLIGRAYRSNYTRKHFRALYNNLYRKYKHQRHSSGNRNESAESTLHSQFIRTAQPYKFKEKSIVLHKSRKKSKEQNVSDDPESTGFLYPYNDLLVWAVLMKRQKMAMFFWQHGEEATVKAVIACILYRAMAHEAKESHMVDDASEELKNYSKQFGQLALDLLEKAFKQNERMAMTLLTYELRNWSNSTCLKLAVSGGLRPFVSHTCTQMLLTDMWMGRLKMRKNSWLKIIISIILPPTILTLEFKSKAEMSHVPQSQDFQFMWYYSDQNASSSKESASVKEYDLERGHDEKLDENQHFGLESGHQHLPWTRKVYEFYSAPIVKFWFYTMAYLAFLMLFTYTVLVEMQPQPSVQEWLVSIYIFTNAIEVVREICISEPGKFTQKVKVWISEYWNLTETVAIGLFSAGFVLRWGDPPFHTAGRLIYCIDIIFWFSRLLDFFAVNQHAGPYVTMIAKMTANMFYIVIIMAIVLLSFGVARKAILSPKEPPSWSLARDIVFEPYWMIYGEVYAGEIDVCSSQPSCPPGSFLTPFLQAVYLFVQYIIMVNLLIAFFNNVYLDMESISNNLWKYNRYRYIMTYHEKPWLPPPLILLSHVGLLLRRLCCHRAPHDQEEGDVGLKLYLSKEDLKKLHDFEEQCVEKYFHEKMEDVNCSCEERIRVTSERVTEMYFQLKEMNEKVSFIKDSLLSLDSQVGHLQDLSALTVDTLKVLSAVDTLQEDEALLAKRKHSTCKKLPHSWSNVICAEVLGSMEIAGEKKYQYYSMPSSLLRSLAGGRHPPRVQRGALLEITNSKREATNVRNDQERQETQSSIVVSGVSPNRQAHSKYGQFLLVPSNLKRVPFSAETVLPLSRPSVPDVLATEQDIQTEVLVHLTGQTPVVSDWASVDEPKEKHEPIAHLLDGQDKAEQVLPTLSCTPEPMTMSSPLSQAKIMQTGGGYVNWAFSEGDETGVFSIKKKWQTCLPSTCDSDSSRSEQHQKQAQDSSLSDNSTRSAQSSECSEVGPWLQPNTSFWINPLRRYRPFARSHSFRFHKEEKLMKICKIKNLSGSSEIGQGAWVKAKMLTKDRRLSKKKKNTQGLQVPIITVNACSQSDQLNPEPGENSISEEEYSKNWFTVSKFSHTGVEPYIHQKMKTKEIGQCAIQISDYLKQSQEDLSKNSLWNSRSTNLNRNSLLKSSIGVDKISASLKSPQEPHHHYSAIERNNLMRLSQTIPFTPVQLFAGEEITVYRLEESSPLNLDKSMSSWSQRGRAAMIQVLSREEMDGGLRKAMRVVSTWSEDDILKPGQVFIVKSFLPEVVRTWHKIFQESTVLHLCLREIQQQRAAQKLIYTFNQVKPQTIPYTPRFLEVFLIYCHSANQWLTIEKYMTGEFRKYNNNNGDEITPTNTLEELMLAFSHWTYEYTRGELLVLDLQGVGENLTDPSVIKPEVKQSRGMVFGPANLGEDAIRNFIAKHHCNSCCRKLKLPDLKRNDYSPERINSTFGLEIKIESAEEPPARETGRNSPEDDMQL

Chain of Serine/threonine-protein kinase 25 (Homo sapiens) (O00506 whole entry, looked up, the tested form may be a part): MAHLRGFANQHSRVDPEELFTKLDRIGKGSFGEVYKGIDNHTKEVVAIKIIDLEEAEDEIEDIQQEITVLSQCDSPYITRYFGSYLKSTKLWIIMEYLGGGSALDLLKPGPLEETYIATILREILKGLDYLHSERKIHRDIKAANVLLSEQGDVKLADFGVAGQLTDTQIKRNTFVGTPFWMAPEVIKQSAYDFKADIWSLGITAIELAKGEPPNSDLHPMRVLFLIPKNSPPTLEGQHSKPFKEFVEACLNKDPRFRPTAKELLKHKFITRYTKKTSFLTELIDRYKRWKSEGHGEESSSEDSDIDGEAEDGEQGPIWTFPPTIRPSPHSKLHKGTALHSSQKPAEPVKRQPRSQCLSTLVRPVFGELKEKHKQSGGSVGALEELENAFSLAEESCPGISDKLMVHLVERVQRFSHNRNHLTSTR
Chain of Phosphatidylinositol 4-phosphate 5-kinase type-1 alpha (Homo sapiens) (Q99755 whole entry): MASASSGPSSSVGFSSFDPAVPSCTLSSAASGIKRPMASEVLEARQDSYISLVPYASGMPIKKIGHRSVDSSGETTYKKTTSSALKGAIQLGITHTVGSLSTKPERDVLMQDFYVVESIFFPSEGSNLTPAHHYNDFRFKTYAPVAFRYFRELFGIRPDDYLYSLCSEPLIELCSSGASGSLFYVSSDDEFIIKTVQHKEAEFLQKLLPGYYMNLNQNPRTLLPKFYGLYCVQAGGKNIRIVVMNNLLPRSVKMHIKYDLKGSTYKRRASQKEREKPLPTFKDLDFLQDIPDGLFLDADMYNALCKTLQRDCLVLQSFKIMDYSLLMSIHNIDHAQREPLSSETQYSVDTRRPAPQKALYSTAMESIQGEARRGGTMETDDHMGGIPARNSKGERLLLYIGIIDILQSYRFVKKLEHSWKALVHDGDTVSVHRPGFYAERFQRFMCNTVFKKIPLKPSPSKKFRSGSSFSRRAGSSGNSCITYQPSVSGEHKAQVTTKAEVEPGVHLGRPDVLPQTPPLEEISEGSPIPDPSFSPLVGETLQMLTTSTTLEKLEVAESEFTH
Chain of Epithelial discoidin domain-containing receptor 1 (Homo sapiens) (Q08345 whole entry, the tested form may be a part): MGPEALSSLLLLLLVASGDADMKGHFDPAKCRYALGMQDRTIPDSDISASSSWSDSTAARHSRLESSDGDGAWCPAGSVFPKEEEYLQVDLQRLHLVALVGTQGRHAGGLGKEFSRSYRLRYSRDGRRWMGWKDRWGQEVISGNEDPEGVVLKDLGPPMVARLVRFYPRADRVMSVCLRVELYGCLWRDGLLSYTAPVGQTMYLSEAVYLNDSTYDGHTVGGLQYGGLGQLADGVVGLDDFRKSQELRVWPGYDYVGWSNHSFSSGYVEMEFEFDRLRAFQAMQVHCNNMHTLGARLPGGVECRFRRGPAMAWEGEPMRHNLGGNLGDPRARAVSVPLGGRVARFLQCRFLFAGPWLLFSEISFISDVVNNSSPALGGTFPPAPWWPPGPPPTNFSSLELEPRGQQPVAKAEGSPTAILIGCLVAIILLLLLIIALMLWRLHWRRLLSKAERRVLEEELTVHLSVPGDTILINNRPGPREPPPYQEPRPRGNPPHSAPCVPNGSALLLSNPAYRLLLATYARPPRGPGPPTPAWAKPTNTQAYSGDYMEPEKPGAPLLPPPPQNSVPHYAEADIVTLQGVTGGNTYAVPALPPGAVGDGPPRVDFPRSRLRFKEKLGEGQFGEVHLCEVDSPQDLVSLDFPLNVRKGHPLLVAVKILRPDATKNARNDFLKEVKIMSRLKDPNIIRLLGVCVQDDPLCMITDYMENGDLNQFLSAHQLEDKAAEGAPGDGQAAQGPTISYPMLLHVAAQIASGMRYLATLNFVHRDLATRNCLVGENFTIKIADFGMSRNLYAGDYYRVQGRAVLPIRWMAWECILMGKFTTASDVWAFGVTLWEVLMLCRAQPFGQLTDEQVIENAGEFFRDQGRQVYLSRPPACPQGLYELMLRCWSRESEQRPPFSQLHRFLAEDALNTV
Chain of Dual specificity protein kinase CLK4 (Q9HAZ1 whole entry, looked up): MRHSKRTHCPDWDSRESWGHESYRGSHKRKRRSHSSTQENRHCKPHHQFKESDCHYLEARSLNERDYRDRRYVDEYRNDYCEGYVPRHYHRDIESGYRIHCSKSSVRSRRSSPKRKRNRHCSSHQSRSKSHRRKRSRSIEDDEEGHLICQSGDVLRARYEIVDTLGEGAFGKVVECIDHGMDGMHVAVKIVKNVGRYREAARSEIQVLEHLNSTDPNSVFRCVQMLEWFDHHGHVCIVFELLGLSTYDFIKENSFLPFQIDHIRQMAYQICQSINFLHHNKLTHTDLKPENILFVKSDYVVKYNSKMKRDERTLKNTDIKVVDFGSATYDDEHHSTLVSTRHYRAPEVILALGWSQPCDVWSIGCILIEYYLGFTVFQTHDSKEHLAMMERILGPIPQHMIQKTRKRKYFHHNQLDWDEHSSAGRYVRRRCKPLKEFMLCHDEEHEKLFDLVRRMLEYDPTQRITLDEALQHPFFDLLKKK
Chain of Tyrosine-protein kinase BTK (Q06187 whole entry): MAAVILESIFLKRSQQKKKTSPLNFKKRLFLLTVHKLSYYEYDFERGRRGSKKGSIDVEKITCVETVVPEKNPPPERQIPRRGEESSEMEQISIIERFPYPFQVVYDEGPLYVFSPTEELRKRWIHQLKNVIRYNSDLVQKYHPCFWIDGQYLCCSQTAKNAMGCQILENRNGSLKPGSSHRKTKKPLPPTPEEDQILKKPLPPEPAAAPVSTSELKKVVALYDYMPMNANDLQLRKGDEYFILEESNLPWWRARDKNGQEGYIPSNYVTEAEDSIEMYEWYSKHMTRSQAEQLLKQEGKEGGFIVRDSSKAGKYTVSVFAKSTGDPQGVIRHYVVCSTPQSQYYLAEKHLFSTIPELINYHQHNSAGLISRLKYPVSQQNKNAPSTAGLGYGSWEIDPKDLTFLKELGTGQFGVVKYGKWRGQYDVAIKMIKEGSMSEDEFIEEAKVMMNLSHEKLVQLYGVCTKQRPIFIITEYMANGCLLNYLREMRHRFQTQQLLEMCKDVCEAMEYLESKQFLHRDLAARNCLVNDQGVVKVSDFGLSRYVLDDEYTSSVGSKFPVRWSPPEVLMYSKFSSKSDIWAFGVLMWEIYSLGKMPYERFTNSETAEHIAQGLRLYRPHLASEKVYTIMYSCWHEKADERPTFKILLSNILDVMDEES

Compound: CNC(=O)Nc1ccc(-c2nc(N3CC4CCC(C3)O4)c3cnn(C4CCC5(CC4)OCCO5)c3n2)cc1
% of inhibition [1]: 3%
% of control [2]: 100%

% of inhibition [3]: 75.7%
% of inhibition [4]: 0.1%
% of inhibition ([5]; at 0.01 µM): 19.6%
% of inhibition ([5]; at 0.04 µM): -3.8%
% of inhibition ([5]; at 0.2 µM): -4.9%
% of inhibition ([5]; at 1 µM): -9.2%
% of inhibition ([5]; at 5 µM): 21.8%
Compound: CC[C@@H]1[C@H](F)C(=O)N[C@@H]1COc1nccc2cc(C(N)=O)c(OC)cc12 [ZIMLOVISERTIB]

Compound: COc1cc(Nc2nc(C)cc(-c3cnn4nc(OC)ccc34)n2)cc(C(F)(F)F)c1
% of control [6]: 99%

Compound: COc1cc(C(=O)N2CC[C@@H](O)[C@@H](N)C2)cc2nc(-c3cc4ccccc4n3CC3CC3)n(C)c12
pXC50 [7]: < 4.4 M

Compound: C=CC(=O)Nc1cc(-n2c(=O)ccc3cnc4ccc(-c5ccc(NS(C)(=O)=O)cc5)cc4c32)ccc1C
% of control ([8]; at 1 µM): 100%
% of control ([8]; at 10 µM): 54%

Compound: O[C@H]1CC[C@H](Nc2ncc3nc(Nc4c(F)cc(F)cc4F)n([C@H]4CCOC4)c3n2)CC1
% of control [9]: 100%

Compound: N#Cc1cccc(-c2c[nH]c3ncnc(N4CCOCC4)c23)c1
% of control [10]: 74%
% of control [11]: 100%
